The text below walks through data of patent US12570666B2, “Furoindazole derivatives” (Bayer Aktiengesellschaft, priority 2019, dated 2026).

Usually IC50 stands for the concentration at which inhibition is half-maximal.

T1 sequence (Q9NQS5 whole entry): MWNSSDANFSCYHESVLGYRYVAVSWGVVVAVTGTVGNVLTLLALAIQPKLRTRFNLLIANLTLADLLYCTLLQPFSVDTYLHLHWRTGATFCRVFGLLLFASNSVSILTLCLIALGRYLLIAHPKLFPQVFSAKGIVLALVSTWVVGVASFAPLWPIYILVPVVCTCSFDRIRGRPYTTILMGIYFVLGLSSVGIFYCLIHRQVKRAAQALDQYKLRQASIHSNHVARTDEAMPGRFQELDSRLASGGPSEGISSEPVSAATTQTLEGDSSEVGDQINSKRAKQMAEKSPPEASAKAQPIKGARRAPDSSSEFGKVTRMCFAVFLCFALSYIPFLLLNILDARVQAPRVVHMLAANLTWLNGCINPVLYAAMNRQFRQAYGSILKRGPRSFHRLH

This experiment has as its target T1, human GPR84 receptor (Homo sapiens, UniProt Q9NQS5).
T1 construct: frozen aliquots prepared by acCELLerate; host or cells: CHO-K1
As to the kind of experiment: cAMP HTRF assay for identification of cellular GPR84 antagonists. Conditions: CHO-K1 cells stably expressing human GPR84; Forskolin + agonist 6-OAU (EC80); average or median values. It counts as cell-based. Put shortly:
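Forskolin-stimulated CHO-K1 cells stably expressing human GPR84, agonist-suppressed cAMP measured by HTRF (665/620 ratio) after lysis. Compounds at 11 concentrations, 20 μM to 0.07 nM, duplicate; normalized to DMSO and no-agonist controls; IC50 by 4-parameter fit.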
Take `Cc1c(C(=O)NC[C@@H]2COCCO2)oc2c1-c1nn(C[C@H]3CCO3)cc1CC2` [Example 98, N-[(2R)-1,4-dioxan-2-ylmethyl]-8-methyl-2-[(2R)-oxetan-2-ylmethyl]-4,5-dihydro-2H-furo[2,3-g]indazole-7-carboxamide]: the IC50 is 470 nM. As to `Cc1c(C(=O)NC[C@@H]2CCCO2)oc2c1-c1nn(C[C@@H]3CCO3)cc1CC2` [Example 99, 8-methyl-2-[(2S)-oxetan-2-ylmethyl]-N-[(2S)-tetrahydrofuran-2-ylmethyl]-4,5-dihydro-2H-furo[2,3-g]indazole-7-carboxamide], the IC50 is 210 nM.

With `Cc1c(C(=O)NC[C@@H]2COCCO2)oc2c1-c1nn(C[C@@H]3CCO3)cc1CC2` [Example 100, N-[(2R)-1,4-dioxan-2-ylmethyl]-8-methyl-2-[(2S)-oxetan-2-ylmethyl]-4,5-dihydro-2H-furo[2,3-g]indazole-7-carboxamide], the IC50 was 310 nM.

On to `Cc1c(C(=O)NC[C@@H]2CCCO2)oc2c1-c1nn(C[C@H]3CN(C)CCO3)cc1CC2` [Example 101, 8-methyl-2-{[(2R)-4-methylmorpholin-2-yl]methyl}-N-[(2S)-tetrahydrofuran-2-ylmethyl]-4,5-dihydro-2H-furo[2,3-g]indazole-7-carboxamide], for which the concentration for half-maximal inhibition (IC50) was determined as 1540 nM.

On to `Cc1c(C(=O)NC[C@@H]2COCCO2)oc2c1-c1nn(C[C@H]3CN(C)CCO3)cc1CC2` [Example 102, N[(2R)-1,4-dioxan-2-ylmethyl]-8-methyl-2-{[(2R)-4-methylmorpholin-2-yl]methyl}-4,5-dihydro-2H-furo[2,3-g]indazole-7-carboxamide], for which the IC50 was found to be 760 nM. Then `Cc1c(C(=O)NC[C@@H]2CCCO2)oc2c1-c1nn(C[C@@H]3CN(C)CCO3)cc1CC2` [Example 103, 8-methyl-2-{[(2S)-4-methylmorpholin-2-yl]methyl}-N-[(2S)-tetrahydrofuran-2-ylmethyl]-4,5-dihydro-2H-furo[2,3-g]indazole-7-carboxamide], with 170 nM. Then `Cc1c(C(=O)NC[C@@H]2COCCO2)oc2c1-c1nn(C[C@@H]3CN(C)CCO3)cc1CC2` [Example 104, N[(2R)-1,4-dioxan-2-ylmethyl]-8-methyl-2-{[(2S)-4-methylmorpholin-2-yl]methyl}-4,5-dihydro-2H-furo[2,3-g]indazole-7-carboxamide], with 180 nM; and `Cc1c(C(=O)NC[C@@H]2CCCO2)oc2c1-c1nn(C[C@H]3CCCO3)cc1CC2` [Example 105, 8-methyl-2-{[(2R)-tetrahydrofuran-2-yl]methyl]-N-[(2S)-tetrahydrofuran-2-ylmethyl]-4,5-dihydro-2H-furo[2,3-g]indazole-7-carboxamide], with 72 nM. Then `Cc1c(C(=O)NC[C@@H]2COCCO2)oc2c1-c1nn(C[C@H]3CCCO3)cc1CC2` [Example 106, N[(2R)-1,4-dioxan-2-ylmethyl]-8-methyl-2-[(2R)-tetrahydrofuran-2-ylmethyl]-4,5-dihydro-2H-furo[2,3-g]indazole-7-carboxamide], with 77 nM.

As for `Cc1c(C(=O)NC[C@@H]2CCCO2)oc2c1-c1nn(C[C@@H]3CCCO3)cc1CC2` [Example 107, 8-methyl-N,2-bis[(2S)-tetrahydrofuran-2-ylmethyl]-4,5-dihydro-2H-furo[2,3-g]indazole-7-carboxamide], the IC50 was determined as 35 nM. Then `Cc1c(C(=O)NC[C@@H]2COCCO2)oc2c1-c1nn(C[C@@H]3CCCO3)cc1CC2` [Example 108, N[(2R)-1,4-dioxan-2-ylmethyl]-8-methyl-2-[(2S)-tetrahydrofuran-2-ylmethyl]-4,5-dihydro-2H-furo[2,3-g]indazole-7-carboxamide], with 58 nM. Then `Cc1c(C(=O)NC[C@@H]2CCCO2)oc2c1-c1nn(CC3CN(C(=O)OC(C)(C)C)C3)cc1CC2` [Example 109, tert-butyl 3-[(8-methyl-7-{[(2S)-tetrahydrofuran-2-ylmethyl]carbamoyl}-4,5-dihydro-2H-furo[2,3-g]indazol-2-yl)methyl]azetidine-1-carboxylate], with 11 nM. On to `Cc1c(C(=O)NC[C@@H]2COCCO2)oc2c1-c1nn(CC3CN(C(=O)OC(C)(C)C)C3)cc1CC2` [Example 110, tert-butyl 3-[(7-{[(2R)-1,4-dioxan-2-ylmethyl]carbamoyl}-8-methyl-4,5-dihydro-2H-furo[2,3-g]indazol-2-yl)methyl]azetidine-1-carboxylate], for which the IC50 was 10 nM. With `Cc1c(C(=O)NC[C@@H]2CCCO2)oc2c1-c1nn(C[C@H]3CCOC3)cc1CC2` [Example 111, 8-methyl-N-[(2S)-tetrahydrofuran-2-ylmethyl]-2-[(3R)-tetrahydrofuran-3-ylmethyl]-4,5-dihydro-2H-furo[2,3-g]indazole-7-carboxamide], the IC50 came out at 140 nM. Then `Cc1c(C(=O)NC[C@@H]2COCCO2)oc2c1-c1nn(C[C@H]3CCOC3)cc1CC2` [Example 112, N-[(2R)-1,4-dioxan-2-ylmethyl]-8-methyl-2-[(3R)-tetrahydrofuran-3-ylmethyl]-4,5-dihydro-2H-furo[2,3-g]indazole-7-carboxamide], with 320 nM; and `Cc1c(C(=O)NC[C@@H]2CCCO2)oc2c1-c1nn(C[C@@H]3CCOC3)cc1CC2` [Example 113, 8-methyl-N-[(2S)-tetrahydrofuran-2-ylmethyl]-2-[(3S)-tetrahydrofuran-3-ylmethyl]-4,5-dihydro-2H-furo[2,3-g]indazole-7-carboxamide], with 91 nM. For `Cc1c(C(=O)NC[C@@H]2COCCO2)oc2c1-c1nn(C[C@@H]3CCOC3)cc1CC2` [Example 114, N-[(2R)-1,4-dioxan-2-ylmethyl]-8-methyl-2-[(3S)-tetrahydrofuran-3-ylmethyl]-4,5-dihydro-2H-furo[2,3-g]indazole-7-carboxamide], the IC50 is 200 nM. Then `O=C(NC[C@@H]1CCCO1)c1oc2c(c1C(F)(F)F)-c1nn(Cc3ccccn3)cc1CC2` [Example 115, 2-(pyridin-2-ylmethyl)-N-[(2S)-tetrahydrofuran-2-ylmethyl]-8-(trifluoromethyl)-4,5-dihydro-2H-furo[2,3-g]indazole-7-carboxamide], with 27 nM; and `O=C(NC[C@@H]1COCCO1)c1oc2c(c1C(F)(F)F)-c1nn(Cc3ccccn3)cc1CC2` [Example 116, N-[(2R)-1,4-dioxan-2-ylmethyl]-2-(pyridin-2-ylmethyl)-8-(trifluoromethyl)-4,5-dihydro-2H-furo[2,3-g]indazole-7-carboxamide], with 28 nM; and `Cn1ccc(CNC(=O)c2oc3c(c2C(F)(F)F)-c2nn(Cc4ccccn4)cc2CC3)n1` [Example 117, N-[(1-methyl-1H-pyrazol-3-yl)methyl]-2-(pyridin-2-ylmethyl)-8-(trifluoromethyl)-4,5-dihydro-2H-furo[2,3-g]indazole-7-carboxamide], with 55 nM. Then `O=C(NCc1ncco1)c1oc2c(c1C(F)(F)F)-c1nn(Cc3ccccn3)cc1CC2` [Example 118, N-(1,3-oxazol-2-ylmethyl)-2-(pyridin-2-ylmethyl)-8-(trifluoromethyl)-4,5-dihydro-2H-furo[2,3-g]indazole-7-carboxamide], with 24 nM; and `O=C(NC[C@@H]1CCCO1)c1oc2c(c1C1CC1)-c1nn(Cc3ccccn3)cc1CC2` [Example 119, 8-cyclopropyl-2-(pyridin-2-ylmethyl)-N-[(2S)-tetrahydrofuran-2-ylmethyl]-4,5-dihydro-2H-furo[2,3-g]indazole-7-carboxamide], with 28 nM. On to `O=C(NC[C@@H]1COCCO1)c1oc2c(c1C1CC1)-c1nn(Cc3ccccn3)cc1CC2` [Example 120, 8-cyclopropyl-N-[(2R)-1,4-dioxan-2-ylmethyl]-2-(pyridin-2-ylmethyl)-4,5-dihydro-2H-furo[2,3-g]indazole-7-carboxamide], for which the IC50 worked out at 51 nM.

Regarding `Cn1ccc(CNC(=O)c2oc3c(c2C2CC2)-c2nn(Cc4ccccn4)cc2CC3)n1` [Example 121, 8-cyclopropyl-N-[(1-methyl-1H-pyrazol-3-yl)methyl]-2-(pyridin-2-ylmethyl)-4,5-dihydro-2H-furo[2,3-g]indazole-7-carboxamide], the IC50 amounted to 67 nM. Then `O=C(NCc1ncco1)c1oc2c(c1C1CC1)-c1nn(Cc3ccccn3)cc1CC2` [Example 122, 8-cyclopropyl-N-(1,3-oxazol-2-ylmethyl)-2-(pyridin-2-ylmethyl)-4,5-dihydro-2H-furo[2,3-g]indazole-7-carboxamide], with 61 nM.

For `Cc1c(C(=O)NCc2ccn(C)n2)oc2c1-c1nn(Cc3ccccn3)cc1C1(CC1)C2` [Example 123, 8′-methyl-N-[(1-methyl-1H-pyrazol-3-yl)methyl]-2′-(pyridin-2-ylmethyl)-2′,5′-dihydrospiro[cyclopropane-1,4′-furo[2,3-g]indazole]-7′-carboxamide], the IC50 was 120 nM. Then `Cc1c(C(=O)NCc2ncco2)oc2c1-c1nn(Cc3ccccn3)cc1C1(CC1)C2` [Example 124, 8′-methyl-N-(1,3-oxazol-2-ylmethyl)-2′-(pyridin-2-ylmethyl)-2′,5′-dihydrospiro[cyclopropane-1,4′-furo[2,3-g]indazole]-7′-carboxamide], with 180 nM; and `Cc1c(C(=O)NC[C@@H]2CCCO2)oc2c1-c1nn(C[C@H]3COCCO3)cc1C1(CC1)C2` [Example 125, 2′-[(2S)-1,4-dioxan-2-ylmethyl]-8′-methyl-N-[(2S)-tetrahydrofuran-2-ylmethyl]-2′,5′-dihydrospiro[cyclopropane-1,4′-furo[2,3-g]indazole]-7′-carboxamide], with 51 nM; and `Cc1c(C(=O)NC[C@@H]2COCCO2)oc2c1-c1nn(C[C@H]3COCCO3)cc1C1(CC1)C2` [Example 126], with 39 nM. Take `Cc1c(C(=O)NCc2ccn(C)n2)oc2c1-c1nn(C[C@H]3COCCO3)cc1C1(CC1)C2` [Example 127, 2′-[(2S)-1,4-dioxan-2-ylmethyl]-8′-methyl-N-[(1-methyl-1H-pyrazol-3-yl)methyl]-2′,5′-dihydrospiro[cyclopropane-1,4′-furo[2,3-g]indazole]-7′-carboxamide]: the IC50 is 170 nM.
